# Measured values reported in US20250210201A1 (priority 2022, published 2025).
# What was measured:
# [1] = test system: primary skin fibroblasts; details: uncoupler as positive control (50 μM per method), 30 minutes
# Method: Primary skin fibroblasts (10,000 cells per well) were seeded into Cell Carrier Ultra 96-well plates. The next day, fibroblast medium was removed and replaced by FBS-deprived DMEM containing 100 nM Tetramethylrhodamine, Ethyl Ester, Perchlorate (TMRE), a fluorescent dye that specifically accumulates in active, polarized mitochondria, or vehicle only (DMSO). The mitochondrial OXPHOS (OXPHOS-mito) uncoupler carbonyl cyanide m-chlorophenyl hydrazone (CCCP) was used—at the concentration of 50 μM—as a positive control of TMRE staining. Nuclei were stained with 1 μg/ml Hoechst 33342. Cells were incubated in the dark at 37° C. for 30 minutes before proceeding with high-throughput automated confocal microscopy analysis. Z-stack images were acquired at 20× magnification using the CellVoyager CV8000 High-Content Screening System.
# An in-house Matlab image processing pipeline was used to quantify TMRE signal. The mitochondria channel was sum-projected on the x-y plane and preprocessed using a DoG filter of 33 pixel side-length, and sigmas set to 1 and 1.5 pixels, prior to thresholding (>10). Connected components with less than 6 pixels were removed from mitochondrial analysis. Total mitochondrial TMRE fluorescence intensity per field was normalized to nuclear area. […] Nine fields per well and at least two wells per condition were assessed for each of the three independent biological replicates.
# [2] = test system: mitochondiral complex I, II and IV; details: Kumar M et al. 2020; worded as 'proposed'; cited from earlier work
# [3] = biological target: T1, complex II (Rattus norvegicus, UniProt P21913+Q641Z9+Q6PCT8+Q920L2); details: rat PD model; Jiang X et al. 2016; cited from earlier work
# T1 construct: host or cells: rat PD model
# [4] = test system: Complex I; details: rat model; Amarsanaa K et al. 2021; cited from earlier work
# T1 sequence (Q920L2 35-656): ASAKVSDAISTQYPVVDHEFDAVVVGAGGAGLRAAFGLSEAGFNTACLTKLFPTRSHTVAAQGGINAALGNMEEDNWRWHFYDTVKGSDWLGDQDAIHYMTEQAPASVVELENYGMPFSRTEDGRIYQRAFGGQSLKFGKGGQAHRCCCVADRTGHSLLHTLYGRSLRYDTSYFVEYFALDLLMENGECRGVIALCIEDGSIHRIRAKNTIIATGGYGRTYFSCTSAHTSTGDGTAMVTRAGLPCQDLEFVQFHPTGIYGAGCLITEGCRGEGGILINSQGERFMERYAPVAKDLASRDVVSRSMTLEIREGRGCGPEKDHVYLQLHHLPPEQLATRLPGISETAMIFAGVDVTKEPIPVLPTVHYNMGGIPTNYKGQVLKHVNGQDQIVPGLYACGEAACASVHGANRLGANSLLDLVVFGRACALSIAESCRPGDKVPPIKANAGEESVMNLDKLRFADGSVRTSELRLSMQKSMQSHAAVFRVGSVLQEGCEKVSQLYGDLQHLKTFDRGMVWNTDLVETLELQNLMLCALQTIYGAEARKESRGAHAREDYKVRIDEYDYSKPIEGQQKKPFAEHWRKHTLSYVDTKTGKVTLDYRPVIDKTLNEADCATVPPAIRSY
# T1 sequence (P21913 31-282): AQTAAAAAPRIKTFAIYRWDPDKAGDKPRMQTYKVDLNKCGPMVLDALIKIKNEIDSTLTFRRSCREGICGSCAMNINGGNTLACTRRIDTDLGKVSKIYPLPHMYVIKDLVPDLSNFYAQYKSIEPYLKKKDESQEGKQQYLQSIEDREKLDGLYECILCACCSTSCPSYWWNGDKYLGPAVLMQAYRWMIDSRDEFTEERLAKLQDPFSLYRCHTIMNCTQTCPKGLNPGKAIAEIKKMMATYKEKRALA
# T1 sequence (Q641Z9 1-169): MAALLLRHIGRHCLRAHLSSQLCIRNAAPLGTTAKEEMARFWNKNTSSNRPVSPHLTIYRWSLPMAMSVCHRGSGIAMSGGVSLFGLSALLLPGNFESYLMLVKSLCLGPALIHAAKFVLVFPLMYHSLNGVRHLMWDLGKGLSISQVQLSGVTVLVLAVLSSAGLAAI
# T1 sequence (Q6PCT8 57-159): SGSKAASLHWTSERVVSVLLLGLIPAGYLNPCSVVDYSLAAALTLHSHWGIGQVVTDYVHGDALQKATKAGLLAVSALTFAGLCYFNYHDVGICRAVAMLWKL
compound,measurement,setting,value
"N#CC(C#N)=NNc1ccc(OC(F)(F)F)cc1 [FCCP, carbonyl cyanide p-trifluoromethoxyphenyl hydrazone]","TMRE fluorescence (mitochondrial membrane potential, Δψm)",[1],robust reduction of TMRE fluorescence
[Na+].[SH-] [NaHS],"complex I, II and IV mediated oxygen consumption rate",[2],"increasing mitochondiral complex I, II and IV mediated oxygen consumption rate"
"COc1ccc(Cn2cc(-c3cc(C(F)(F)F)nc(S(C)(=O)=O)n3)ccc2=O)cc1OC [Compound A, 1-(3,4-dimethoxybenzyl)-5-(2-(methylsulfonyl)-6-(trifluoromethyl)pyrimidin-4-yl) pyridin-2 (1H)]",dopaminergic neurons' death,[3],preventing dopaminergic neurons' death
"COc1ccc(-c2cc(=O)c3c(OC)c(OC)c(OC)c(OC)c3o2)cc1OC [Nobiletin, 5,6,7,8,3′,4′-hexamethoxyflavone]",activity of complex I,[4],restore activity of complex I
